Source: EP0068038A1, “(+)-(4R,6S)-(E)-6-(2-(4'-fluoro-3,3',5-trimethyl-(1,1'-biphenyl)-2-yl)ethenyl)-3,4,5,6-tetrahydro-4-hydroxy-2H-pyran-2-one, a process for preparing and a pharmaceutical composition containing the same” (Merck & Co., Inc., priority 1981, dated 1983)
Read-outs that look alike come from different tables or passages of the source.

Tests used:
[1] = molecular target: T1, 3-hydroxy-3-methylglutaryl-coenzyme A reductase (Rattus norvegicus, UniProt P51639); conditions: from E.P. publication 0 024 348, cited from earlier work
T1 sequence (P51639 1-887): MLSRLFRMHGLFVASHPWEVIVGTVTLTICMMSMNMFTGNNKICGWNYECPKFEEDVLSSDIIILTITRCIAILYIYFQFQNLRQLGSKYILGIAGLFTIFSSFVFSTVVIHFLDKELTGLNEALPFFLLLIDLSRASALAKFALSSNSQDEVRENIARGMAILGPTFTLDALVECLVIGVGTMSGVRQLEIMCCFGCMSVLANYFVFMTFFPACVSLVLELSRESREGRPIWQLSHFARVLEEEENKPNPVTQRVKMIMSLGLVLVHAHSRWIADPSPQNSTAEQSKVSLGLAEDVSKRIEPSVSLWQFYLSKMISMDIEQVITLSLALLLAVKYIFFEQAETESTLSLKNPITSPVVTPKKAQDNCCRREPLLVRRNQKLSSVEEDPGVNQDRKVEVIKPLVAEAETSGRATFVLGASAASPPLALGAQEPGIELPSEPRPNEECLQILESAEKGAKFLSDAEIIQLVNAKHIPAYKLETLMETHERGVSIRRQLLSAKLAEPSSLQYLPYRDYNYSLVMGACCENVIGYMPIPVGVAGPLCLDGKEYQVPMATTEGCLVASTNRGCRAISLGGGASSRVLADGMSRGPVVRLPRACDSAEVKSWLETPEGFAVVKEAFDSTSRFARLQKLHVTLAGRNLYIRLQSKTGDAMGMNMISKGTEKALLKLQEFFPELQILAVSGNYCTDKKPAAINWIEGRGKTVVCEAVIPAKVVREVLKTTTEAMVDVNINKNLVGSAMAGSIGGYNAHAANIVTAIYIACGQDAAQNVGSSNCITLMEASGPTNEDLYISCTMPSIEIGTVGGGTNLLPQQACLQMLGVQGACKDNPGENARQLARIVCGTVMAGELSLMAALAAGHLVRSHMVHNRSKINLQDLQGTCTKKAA

[2] = molecular target: T1, 3-hydroxy-3-methylglutaryl-coenzyme A reductase; assay: Method A: in vitro enzyme inhibition (method of Knauss et al.); type: biochemical

SMILES: O=C1CC(O)CC(CCc2c(Cl)cc(Cl)cc2OCc2ccccc2)O1 (single isomer, unassigned; (+)) [6-[2-(2,4-dichloro-6-(phenylmethoxy)phenyl)ethyl]-3,4,5,6-tetrahydro-4-hydroxy-2H-pyran-2-one]
- IC50 ([1]; method A, tested as the sodium salts of the corresponding dihydroxy acid forms): 68 nM

SMILES: O=C1C[C@H](O)C[C@@H](/C=C/c2c(Cl)cc(Cl)cc2-c2ccc(F)cc2)O1 [(E)-6-[2-(3,5-dichloro-4'-fluoro[l,l'-biphenyl]-2-yl)ethenyl]-3,4,5,6-tetrahydro-4-hydroxy-2H-pyran-2-one]
- inhibitory potency (relative, in words) ([1]; compared with the (+) trans enantiomer of the 2,4-dichloro-6-(phenylmethoxy)phenyl compound, tested as sodium salt of the dihydroxy acid): even more potent

SMILES: Cc1cc(C)c(/C=C/[C@@H]2C[C@@H](O)CC(=O)O2)c(-c2ccc(F)c(C)c2)c1 [III, (+)-(4R, 6S)-(E)-6-[2-(3,3',5-trimethyl-4'-fluoro-[1,1'-biphenyl]-2-yl)ethenyl]-3,4,5,6-tetrahydro-4-hydroxy-2H-pyran-2-one]
- inhibition of cholesterol biosynthesis (in words) ([2]; compared with compactin, test not specified): surpassing the inhibitory activity of compactin
- inhibitory potency (relative, in words) ([2]; compared with the (+) trans 3,5-dichloro-4'-fluoro-biphenyl compound, tested as sodium salt of the dihydroxy acid): several times more potent
